Experimental data as given in patent US20170312253A1 (The Third Affiliated Hospital, Third Military Medical …, priority 2014, published 2017).

Legend:
Aβ42 = Aβ42 (Homo sapiens, UniProt P05067); experiment: Western blot determination of aggregation-inhibitive effect on Aβ; format: biochemical; settings: read-out: inhibition of Aβ from forming aggregates (Western blot)
NEP = experiment: Western blot of Aβ metabolizing enzymes in brain: NEP; format: in vivo; settings: AD mice brain
Description: (§1) APPswe/PS1DE9 (AD) transgenic mice were purchased from Jackson Laboratory, USA (No. 005864), raised in the SPF grade animal house of The Third Affiliated Hospital of The Third Military Medical University. All the processes and correlated experiments applied to the mice were approved and filed with the Animal Ethics Committee of the Third Military Medical University. […] Alternatively, the daily dose for the prophylactic group may be 6.4 mg/kg, and the daily dose for the treatment group may be 12.8 mg/kg. […]
(§2) The enzymes related with Aβ formation and degradation their molecule levels, the levels of hyperphosphprylated Tau proteins, and the levels of synaptic plasticity correlated proteins were all detected with Western blot. […] The blotting was detected with the following antibodies: APP C terminal antibody (171610, Millipore), BACE1 antibody (Millipore), Aβ antibody (6E10, Abcam), Nepriiysin antibody (Millipore), RAGE antibody (Millipore), LRP antibody (5A6, Calbiochem), IDE antibody (epitomics), phosphorylated Tau protein antibody, including pS396 (Signalway), pT231 (Signalway), pS199 (epitomics), pS262 (Abcam), SNAP25 antibody (Millipore), Synaptophysin antibody (Millipore), Synapsin I antibody (Millipore), VAMP1 antibody (Millipore), PSD95 antibody (Millipore), F-actin antibody (Actin) (Sigma-Aldrich). […]

IDE = experiment: Western blot of Aβ metabolizing enzymes in brain: IDE; format: in vivo; settings: AD mice brain
Description: as §1, §2

RAGE = experiment: Western blot of Aβ metabolizing enzymes in brain: RAGE; format: in vivo; settings: AD mice brain
Description: as §1, §2

β-secretase (BACE1) [1] = experiment: Western blot of BACE1 expression in brain; format: in vivo; settings: AD mice brain
Description: as §1, §2

β-secretase (BACE1) [2] = target: T1, β-secretase (BACE1) (Mus musculus, UniProt P56818); experiment: β-secretase activity in brain tissues (kit); format: in vivo; settings: AD mice brain
T1 construct: The proteins in the brain tissue homogenates were extracted with a RIP A buffer solution; from tissue; host or cells: brain of APPswe/PS1DE9 mice
T1 sequence (P56818 46-501): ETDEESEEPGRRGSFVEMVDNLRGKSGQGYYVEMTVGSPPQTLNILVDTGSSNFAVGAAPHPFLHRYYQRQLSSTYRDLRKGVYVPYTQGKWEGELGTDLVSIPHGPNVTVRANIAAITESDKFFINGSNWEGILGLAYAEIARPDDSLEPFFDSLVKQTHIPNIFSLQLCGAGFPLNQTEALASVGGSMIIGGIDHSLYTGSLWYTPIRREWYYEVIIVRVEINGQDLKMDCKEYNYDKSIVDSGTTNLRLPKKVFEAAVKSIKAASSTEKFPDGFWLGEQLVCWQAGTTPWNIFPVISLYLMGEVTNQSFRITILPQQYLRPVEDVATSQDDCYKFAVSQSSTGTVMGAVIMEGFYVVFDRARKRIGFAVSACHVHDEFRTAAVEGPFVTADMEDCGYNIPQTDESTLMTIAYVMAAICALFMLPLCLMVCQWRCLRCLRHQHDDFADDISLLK
Description: (§3) APPswe/PS1DE9 (AD) transgenic mice were purchased from Jackson Laboratory, USA (No. 005864), raised in the SPF grade animal house of The Third Affiliated Hospital of The Third Military Medical University. All the processes and correlated experiments applied to the mice were approved and filed with the Animal Ethics Committee of the Third Military Medical University. […] Alternatively, the daily dose for the prophylactic group may be 6.4 mg/kg, and the daily dose for the treatment group may be 12.8 mg/kg. Administration from 3-month old to 9-month old is the prophylactic test, and administration from 9-month old to 12-month old is the therapeutic test After reaching a stated time, the mice in each group received behavioral tests according to the method in the follows. Three mice in each group were taken for Golgi staining. The remaining mice were overly anaesthetized to receive brain anatomy. One side of the cerebral hemisphere was frozen and then for a biochemical analysis, and the other side of the cerebral hemisphere was fixed with 4% paraform for a histological analysis.
After homogenating the frozen brain tissues, extraction was conducted with TBS, SDS and formic acid successively. The TBS, SDS and formic acid extracts represent soluble Aβ, loosen senile plaques and compact senile plaques, respectively. […]

BACE = experiment: In vitro test of BACE expression
Gsk-3β = Gsk-3β (Homo sapiens, UniProt P49841); experiment: In vitro test of Gsk-3β activities
Sequence of Gsk-3β (P49841 whole entry, species assumed): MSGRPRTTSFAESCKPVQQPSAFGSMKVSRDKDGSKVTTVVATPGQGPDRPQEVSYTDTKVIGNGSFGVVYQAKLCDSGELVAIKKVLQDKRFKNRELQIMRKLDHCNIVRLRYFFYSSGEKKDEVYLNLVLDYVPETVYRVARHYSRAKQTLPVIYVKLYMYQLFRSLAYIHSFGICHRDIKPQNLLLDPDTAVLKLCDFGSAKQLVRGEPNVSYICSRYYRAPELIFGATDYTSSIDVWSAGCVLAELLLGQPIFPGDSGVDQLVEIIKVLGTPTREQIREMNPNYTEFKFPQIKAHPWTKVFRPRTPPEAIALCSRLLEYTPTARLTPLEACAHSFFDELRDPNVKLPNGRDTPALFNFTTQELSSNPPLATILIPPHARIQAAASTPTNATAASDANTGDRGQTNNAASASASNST

[3] = test system: dendritic spines of pyramidal cells in hippocampus CA1; experiment: Golgi staining, dendritic spines; format: in vivo; settings: AD mice
Description: as §3
After overly anesthetized, the animals received heart perfusions with normal saline containing 0.5% nitrous acid, 4% paraform, and Golgi dye liquor, successively. […]

Tau protein = experiment: Western blot of phosphorylated Tau protein; format: in vivo; settings: AD mice
Description: as §1, §2

neurons = experiment: Neuron apoptosis in the brain of AD mice; format: in vivo
Description: as §3

N2a/Swe.Δ9 cells = settings: cited from earlier work

Sequence of Aβ42 (P05067 672-713 limits assumed): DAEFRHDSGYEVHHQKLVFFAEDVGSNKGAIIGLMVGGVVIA

SMILES: CC1=NN(c2ccccc2)C(=O)C1 [Edaravone, 3-methyl-1-phenyl-2-pyrazolin-5-one]
- inhibition at 3 µM (Aβ42): 50%
- influence on NEP (NEP): no influence
- influence on IDE (IDE): no influence
- influence on RAGE (RAGE): no influence
- expression of β-secretase (BACE1) (β-secretase (BACE1) [1]): significant decrease
- activity of β-secretase (BACE1) (β-secretase (BACE1) [2]): significant decrease
- BACE expression in vitro (BACE): inhibits the BACE expression
- Gsk-3β activities in vitro (Gsk-3β): inhibits the Gsk-3β activities
- numbers of the dendritic spines [3]: also significantly increased
- phosphorylation level of Tau protein (Tau protein): reduce the phosphorylation level of Tau protein at multiple pathological sites
- neuron apoptosis in the brain (neurons): significantly reduce the neuron apoptosis
- mitochondrion dependant apoptosis pathway (N2a/Swe.Δ9 cells): inhibit the mitochondrion dependant apoptosis pathway
